# Laboratory results taken from the supplement of paper PMC10307832.
# Key:
# Test in all cases: relative viability (nuclei count vs DMSO), 5 days (fraction); higher = more cells survive
# Dactolisib + Crizotinib = compound: Cn1c(=O)n(-c2ccc(C(C)(C)C#N)cc2)c2c3cc(-c4cnc5ccccc5c4)ccc3ncc21 [Dactolisib] + C[C@@H](Oc1cc(-c2cnn(C3CCNCC3)c2)cnc1N)c1c(Cl)ccc(F)c1Cl [Crizotinib] (partner 1 µM)
# Outline: (§1)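 Relative viability equals treated-well nuclei counts divided by vehicle-well nuclei counts. Counts came from 4× images of lung cancer cell lines grown in 1536-well plates for 5 days after pin-tool dosing on the day after seeding. Dosing used one drug alone or a fixed anchor-drug dose plus five library-drug doses (not always all listed) in √10 steps, and values are medians of duplicate plates.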
# Dactolisib + Decitabine = compound: Cn1c(=O)n(-c2ccc(C(C)(C)C#N)cc2)c2c3cc(-c4cnc5ccccc5c4)ccc3ncc21 [Dactolisib] + Nc1ncn([C@H]2C[C@H](O)[C@@H](CO)O2)c(=O)n1 [Decitabine] (partner 2 µM)
# Outline: as §1
# AZ505 + Palbociclib = compound: C1CCC(CC1)N(CCNCCC2=C3C(=C(C=C2)O)NC(=O)CO3)C(=O)CCNCCC4=CC(=C(C=C4)Cl)Cl [AZ505] + CC(=O)c1c(C)c2cnc(Nc3ccc(N4CCNCC4)cn3)nc2n(C2CCCC2)c1=O [Palbociclib] (partner 0.5 µM)
# Outline: as §1
# AZ505 + AZD7762 = compound: C1CCC(CC1)N(CCNCCC2=C3C(=C(C=C2)O)NC(=O)CO3)C(=O)CCNCCC4=CC(=C(C=C4)Cl)Cl [AZ505] + NC(=O)Nc1cc(-c2cccc(F)c2)sc1C(=O)N[C@H]1CCCNC1 [AZD7762] (partner 0.2 µM)
# Outline: as §1
cell line,measurement,setting,value
LCLC-103H,relative viability,Dactolisib + Crizotinib; first compound 0.002 µM,1.03
same,relative viability,Dactolisib + Crizotinib; first compound 0.006325 µM,0.985
same,relative viability,Dactolisib + Crizotinib; first compound 0.02 µM,1.08
same,relative viability,Dactolisib + Crizotinib; first compound 0.06325 µM,0.675
same,relative viability,Dactolisib + Crizotinib; first compound 0.2 µM,0.461
same,relative viability,Dactolisib + Decitabine; first compound 0.002 µM,0.678
same,relative viability,Dactolisib + Decitabine; first compound 0.006325 µM,0.677
same,relative viability,Dactolisib + Decitabine; first compound 0.02 µM,0.592
same,relative viability,Dactolisib + Decitabine; first compound 0.06325 µM,0.458
same,relative viability,Dactolisib + Decitabine; first compound 0.2 µM,0.433
same,relative viability,AZ505 + Palbociclib; first compound 0.08 µM,0.485
same,relative viability,AZ505 + Palbociclib; first compound 0.253 µM,0.455
same,relative viability,AZ505 + Palbociclib; first compound 0.8 µM,0.455
same,relative viability,AZ505 + Palbociclib; first compound 2.53 µM,0.45
same,relative viability,AZ505 + Palbociclib; first compound 8 µM,0.452
same,relative viability,AZ505 + AZD7762; first compound 0.08 µM,0.711
same,relative viability,AZ505 + AZD7762; first compound 0.253 µM,0.719
same,relative viability,AZ505 + AZD7762; first compound 0.8 µM,0.665
same,relative viability,AZ505 + AZD7762; first compound 2.53 µM,0.647
same,relative viability,AZ505 + AZD7762; first compound 8 µM,0.718
LCLC-97TM1,relative viability,Dactolisib + Crizotinib; first compound 0.002 µM,0.509
same,relative viability,Dactolisib + Crizotinib; first compound 0.006325 µM,0.373
same,relative viability,Dactolisib + Crizotinib; first compound 0.02 µM,0.277
same,relative viability,Dactolisib + Crizotinib; first compound 0.06325 µM,0.149
same,relative viability,Dactolisib + Crizotinib; first compound 0.2 µM,0.145
same,relative viability,Dactolisib + Decitabine; first compound 0.002 µM,0.261
same,relative viability,Dactolisib + Decitabine; first compound 0.006325 µM,0.24
same,relative viability,Dactolisib + Decitabine; first compound 0.02 µM,0.23
same,relative viability,Dactolisib + Decitabine; first compound 0.06325 µM,0.172
same,relative viability,Dactolisib + Decitabine; first compound 0.2 µM,0.155
same,relative viability,AZ505 + Palbociclib; first compound 0.08 µM,0.213
same,relative viability,AZ505 + Palbociclib; first compound 0.253 µM,0.252
same,relative viability,AZ505 + Palbociclib; first compound 0.8 µM,0.219
same,relative viability,AZ505 + Palbociclib; first compound 8 µM,0.232
same,relative viability,AZ505 + AZD7762; first compound 0.08 µM,0.427
same,relative viability,AZ505 + AZD7762; first compound 0.253 µM,0.111
same,relative viability,AZ505 + AZD7762; first compound 0.8 µM,0.301
same,relative viability,AZ505 + AZD7762; first compound 2.53 µM,0.317
same,relative viability,AZ505 + AZD7762; first compound 8 µM,0.354
NCI-H727,relative viability,Dactolisib + Crizotinib; first compound 0.002 µM,0.915
same,relative viability,Dactolisib + Crizotinib; first compound 0.006325 µM,0.671
same,relative viability,Dactolisib + Crizotinib; first compound 0.02 µM,0.666
same,relative viability,Dactolisib + Crizotinib; first compound 0.06325 µM,0.354
same,relative viability,Dactolisib + Crizotinib; first compound 0.2 µM,0.374
same,relative viability,Dactolisib + Decitabine; first compound 0.006325 µM,0.986
same,relative viability,Dactolisib + Decitabine; first compound 0.02 µM,1.01
same,relative viability,Dactolisib + Decitabine; first compound 0.06325 µM,0.465
same,relative viability,Dactolisib + Decitabine; first compound 0.2 µM,0.496
same,relative viability,AZ505 + Palbociclib; first compound 0.08 µM,0.598
same,relative viability,AZ505 + Palbociclib; first compound 0.253 µM,0.687
same,relative viability,AZ505 + Palbociclib; first compound 0.8 µM,0.625
same,relative viability,AZ505 + Palbociclib; first compound 2.53 µM,0.552
same,relative viability,AZ505 + Palbociclib; first compound 8 µM,0.674
same,relative viability,AZ505 + AZD7762; first compound 0.08 µM,0.661
same,relative viability,AZ505 + AZD7762; first compound 0.253 µM,0.418
same,relative viability,AZ505 + AZD7762; first compound 0.8 µM,0.582
same,relative viability,AZ505 + AZD7762; first compound 2.53 µM,0.512
same,relative viability,AZ505 + AZD7762; first compound 8 µM,0.76
NCI-H1355,relative viability,Dactolisib + Crizotinib; first compound 0.002 µM,1.18
same,relative viability,Dactolisib + Crizotinib; first compound 0.006325 µM,1.09
same,relative viability,Dactolisib + Crizotinib; first compound 0.02 µM,0.99
same,relative viability,Dactolisib + Crizotinib; first compound 0.06325 µM,0.488
same,relative viability,Dactolisib + Crizotinib; first compound 0.2 µM,0.326
same,relative viability,Dactolisib + Decitabine; first compound 0.002 µM,0.382
same,relative viability,Dactolisib + Decitabine; first compound 0.006325 µM,0.35
same,relative viability,Dactolisib + Decitabine; first compound 0.02 µM,0.338
same,relative viability,Dactolisib + Decitabine; first compound 0.06325 µM,0.267
same,relative viability,Dactolisib + Decitabine; first compound 0.2 µM,0.253
same,relative viability,AZ505 + Palbociclib; first compound 0.08 µM,0.369
same,relative viability,AZ505 + Palbociclib; first compound 0.253 µM,0.398
same,relative viability,AZ505 + Palbociclib; first compound 0.8 µM,0.396
same,relative viability,AZ505 + Palbociclib; first compound 2.53 µM,0.367
same,relative viability,AZ505 + Palbociclib; first compound 8 µM,0.374
same,relative viability,AZ505 + AZD7762; first compound 0.08 µM,0.677
same,relative viability,AZ505 + AZD7762; first compound 0.253 µM,0.474
same,relative viability,AZ505 + AZD7762; first compound 0.8 µM,0.757
same,relative viability,AZ505 + AZD7762; first compound 2.53 µM,0.689
same,relative viability,AZ505 + AZD7762; first compound 8 µM,0.858
HOP-62,relative viability,Dactolisib + Crizotinib; first compound 0.002 µM,1.06
same,relative viability,Dactolisib + Crizotinib; first compound 0.006325 µM,1.01
same,relative viability,Dactolisib + Crizotinib; first compound 0.02 µM,0.923
same,relative viability,Dactolisib + Crizotinib; first compound 0.06325 µM,0.505
same,relative viability,Dactolisib + Crizotinib; first compound 0.2 µM,0.472
same,relative viability,Dactolisib + Decitabine; first compound 0.002 µM,0.287
same,relative viability,Dactolisib + Decitabine; first compound 0.006325 µM,0.238
same,relative viability,Dactolisib + Decitabine; first compound 0.02 µM,0.215
same,relative viability,Dactolisib + Decitabine; first compound 0.06325 µM,0.275
same,relative viability,Dactolisib + Decitabine; first compound 0.2 µM,0.22
same,relative viability,AZ505 + Palbociclib; first compound 0.08 µM,0.403
same,relative viability,AZ505 + Palbociclib; first compound 0.253 µM,0.535
same,relative viability,AZ505 + Palbociclib; first compound 0.8 µM,0.461
same,relative viability,AZ505 + Palbociclib; first compound 2.53 µM,0.475
same,relative viability,AZ505 + Palbociclib; first compound 8 µM,0.52
same,relative viability,AZ505 + AZD7762; first compound 0.08 µM,0.43
same,relative viability,AZ505 + AZD7762; first compound 0.253 µM,0.328
same,relative viability,AZ505 + AZD7762; first compound 0.8 µM,0.682
same,relative viability,AZ505 + AZD7762; first compound 2.53 µM,0.63
same,relative viability,AZ505 + AZD7762; first compound 8 µM,0.669
NCI-H2085,relative viability,Dactolisib + Crizotinib; first compound 0.002 µM,0.904
same,relative viability,Dactolisib + Crizotinib; first compound 0.006325 µM,0.763
same,relative viability,Dactolisib + Crizotinib; first compound 0.02 µM,0.668
same,relative viability,Dactolisib + Crizotinib; first compound 0.06325 µM,0.523
same,relative viability,Dactolisib + Crizotinib; first compound 0.2 µM,0.305
same,relative viability,Dactolisib + Decitabine; first compound 0.002 µM,0.685
same,relative viability,Dactolisib + Decitabine; first compound 0.006325 µM,0.496
same,relative viability,Dactolisib + Decitabine; first compound 0.02 µM,0.514
same,relative viability,Dactolisib + Decitabine; first compound 0.06325 µM,0.405
same,relative viability,Dactolisib + Decitabine; first compound 0.2 µM,0.373
same,relative viability,AZ505 + Palbociclib; first compound 0.08 µM,0.451
same,relative viability,AZ505 + Palbociclib; first compound 0.253 µM,0.469
same,relative viability,AZ505 + Palbociclib; first compound 0.8 µM,0.459
same,relative viability,AZ505 + Palbociclib; first compound 2.53 µM,0.477
same,relative viability,AZ505 + Palbociclib; first compound 8 µM,0.446
same,relative viability,AZ505 + AZD7762; first compound 0.08 µM,0.879
same,relative viability,AZ505 + AZD7762; first compound 0.253 µM,0.966
same,relative viability,AZ505 + AZD7762; first compound 0.8 µM,0.847
same,relative viability,AZ505 + AZD7762; first compound 2.53 µM,0.968
same,relative viability,AZ505 + AZD7762; first compound 8 µM,0.954
